According to ChEMBL document CHEMBL3232986, “Identification of a novel series of potent HCV NS5B Site I inhibitors” (Bioorg Med Chem Lett, 2014):

Tested on: not listed separately
Assay: Drug uptake in rat liver 10 mg/kg, po after 6 hrs
Assay type: ADME, organism-based
Parameters: dose 10 mg/kg, route oral
Conditions: liver, read-out: Drug uptake

`CCOCCN1CC23COCC2(C1)CN(C(=O)[C@]12C[C@H]1c1cc(OC)ccc1-c1c(C4CCCCC4)c4ccc(C(=O)NS(=O)(=O)C(C)C)cc4n1C2)C3` (some centres undefined) and `COc1ccc2c(c1)[C@@H]1C[C@]1(C(=O)N1CC34CCC3(CN(C)C4)C1)Cn1c-2c(C2CCCCC2)c2ccc(C(=O)NS(=O)(=O)C(C)C)cc21` (some centres undefined) are within 1.5-fold of each other in concentration at 6 h: 116 nM for the first, 146 nM for the second.

In the case of `COc1ccc2c(c1)[C@@H]1C[C@]1(C(=O)N1CC34CCCC3(CN(C)C4)C1)Cn1c-2c(C2CCCCC2)c2ccc(C(=O)NS(=O)(=O)C(C)C)cc21` (some centres undefined), the concentration at 6 h is reported as 504 nM.

Molecular target: not listed separately
Assay: Inhibition of HCV genotype 1b wild type NS5B polymerase using biotinylated oligo dT12 primer as substrate after 4 hrs in presence of [3H]UTP
Parameters: species or system Hepatitis C virus subtype 1b
Conditions: not given

`COc1ccc2c(c1)[C@@H]1C[C@]1(C(=O)N1CC34CNCC3(CN(C)C4)C1)Cn1c-2c(C2CCCCC2)c2ccc(C(=O)NS(=O)(=O)C(C)C)cc21` (some centres undefined) and `COc1ccc2c(c1)[C@@H]1C[C@]1(C(=O)N1CC34CCC3(CN(C)C4)C1)Cn1c-2c(C2CCCCC2)c2ccc(C(=O)NS(=O)(=O)C(C)C)cc21` (some centres undefined) are within 1.5-fold of each other in IC50: 5 nM for the first, 4 nM for the second.

Compared with `COc1ccc2c(c1)[C@@H]1C[C@]1(C(=O)N1CC34CNCC3(COC4)C1)Cn1c-2c(C2CCCCC2)c2ccc(C(=O)NS(=O)(=O)C(C)C)cc21` (some centres undefined), `COC(=O)N1CC23COCC2(C1)CN(C(=O)[C@]12C[C@H]1c1cc(OC)ccc1-c1c(C4CCCCC4)c4ccc(C(=O)NS(=O)(=O)C(C)C)cc4n1C2)C3` (some centres undefined) is 3.8-fold higher in IC50: 6 nM for the first, 23 nM for the second. The first is the more potent here.

`COc1ccc2c(c1)[C@@H]1C[C@]1(C(=O)N1CC34COCC3(C1)CN(S(=O)(=O)C(C)C)C4)Cn1c-2c(C2CCCCC2)c2ccc(C(=O)NS(=O)(=O)N(C)C)cc21` (some centres undefined) and `COc1ccc2c(c1)[C@@H]1C[C@]1(C(=O)N1CC34COCC3(CN(CC(F)(F)F)C4)C1)Cn1c-2c(C2CCCCC2)c2ccc(C(=O)NS(=O)(=O)N(C)C)cc21` (some centres undefined) are the same in IC50: 2 nM for the first, 2 nM for the second.

`COc1ccc2c(c1)[C@@H]1C[C@]1(C(=O)N1CC34COCC3(CN(CC(F)(F)F)C4)C1)Cn1c-2c(C2CCCCC2)c2ccc(C(=O)NS(=O)(=O)C(C)C)cc21` (some centres undefined) and `COc1ccc2c(c1)[C@@H]1C[C@]1(C(=O)N1CC34CCCC3(CN(C)C4)C1)Cn1c-2c(C2CCCCC2)c2ccc(C(=O)NS(=O)(=O)C(C)C)cc21` (some centres undefined) are within 1.5-fold of each other in IC50: 4 nM for the first, 3 nM for the second.

Tested on: not listed separately
Assay: Plasma concentration in rat at 5 mg/kg, iv after 6 hrs
Assay type: ADME, organism-based
Parameters: dose 5 mg/kg, route intravenous
Conditions: plasma

`CCOCCN1CC23COCC2(C1)CN(C(=O)[C@]12C[C@H]1c1cc(OC)ccc1-c1c(C4CCCCC4)c4ccc(C(=O)NS(=O)(=O)C(C)C)cc4n1C2)C3` (some centres undefined) and `COc1ccc2c(c1)[C@@H]1C[C@]1(C(=O)N1CC34CCC3(CN(C)C4)C1)Cn1c-2c(C2CCCCC2)c2ccc(C(=O)NS(=O)(=O)C(C)C)cc21` (some centres undefined) are within 1.5-fold of each other in concentration at 6 h: 32 nM for the first, 26 nM for the second.

`COc1ccc2c(c1)[C@@H]1C[C@]1(C(=O)N1CC34CCCC3(CN(C)C4)C1)Cn1c-2c(C2CCCCC2)c2ccc(C(=O)NS(=O)(=O)C(C)C)cc21` (some centres undefined) gave a concentration at 6 h of 22 nM.

Tested on: not listed separately
Assay: Plasma concentration in rat at 10 mg/kg, po after 6 hrs
Assay type: ADME, organism-based
Parameters: dose 10 mg/kg, route oral
Conditions: plasma

`CCOCCN1CC23COCC2(C1)CN(C(=O)[C@]12C[C@H]1c1cc(OC)ccc1-c1c(C4CCCCC4)c4ccc(C(=O)NS(=O)(=O)C(C)C)cc4n1C2)C3` (some centres undefined) and `COc1ccc2c(c1)[C@@H]1C[C@]1(C(=O)N1CC34CCC3(CN(C)C4)C1)Cn1c-2c(C2CCCCC2)c2ccc(C(=O)NS(=O)(=O)C(C)C)cc21` (some centres undefined) are within 1.5-fold of each other in concentration at 6 h: 8 nM for the first, 6 nM for the second.

`COc1ccc2c(c1)[C@@H]1C[C@]1(C(=O)N1CC34CCCC3(CN(C)C4)C1)Cn1c-2c(C2CCCCC2)c2ccc(C(=O)NS(=O)(=O)C(C)C)cc21` (some centres undefined) showed a concentration at 6 h of 24 nM.

Tested on: not listed separately
Assay: Clearance in rat after 6 hrs
Assay type: ADME, organism-based
Conditions: in vivo

Compared with `CCOCCN1CC23COCC2(C1)CN(C(=O)[C@]12C[C@H]1c1cc(OC)ccc1-c1c(C4CCCCC4)c4ccc(C(=O)NS(=O)(=O)C(C)C)cc4n1C2)C3` (some centres undefined), `COc1ccc2c(c1)[C@@H]1C[C@]1(C(=O)N1CC34CCC3(CN(C)C4)C1)Cn1c-2c(C2CCCCC2)c2ccc(C(=O)NS(=O)(=O)C(C)C)cc21` (some centres undefined) is 3.4-fold lower in clearance: 81 mL/min/kg for the first, 24 mL/min/kg for the second.

`COc1ccc2c(c1)[C@@H]1C[C@]1(C(=O)N1CC34CCCC3(CN(C)C4)C1)Cn1c-2c(C2CCCCC2)c2ccc(C(=O)NS(=O)(=O)C(C)C)cc21` (some centres undefined) gave a clearance of 31 mL/min/kg.

Tested on: not listed separately
Assay: Cytotoxicity against human HuH7 cells after 4 hrs by CellTitre-Blue assay
Assay type: cell-based, Huh-7
Conditions: not given

Going from `COC(=O)N1CC23COCC2(C1)CN(C(=O)[C@]12C[C@H]1c1cc(OC)ccc1-c1c(C4CCCCC4)c4ccc(C(=O)NS(=O)(=O)C(C)C)cc4n1C2)C3` (some centres undefined) to `CCOCCN1CC23COCC2(C1)CN(C(=O)[C@]12C[C@H]1c1cc(OC)ccc1-c1c(C4CCCCC4)c4ccc(C(=O)NS(=O)(=O)C(C)C)cc4n1C2)C3` (some centres undefined), the CC50 at 4 h rises from 5000 nM to 19000 nM (3.8-fold).

First: COc1ccc2c(c1)[C@@H]1C[C@]1(C(=O)N1CC34COCC3(C1)CN(S(=O)(=O)C(C)C)C4)Cn1c-2c(C2CCCCC2)c2ccc(C(=O)NS(=O)(=O)N(C)C)cc21 (some centres undefined)
Second: COc1ccc2c(c1)[C@@H]1C[C@]1(C(=O)N1CC34COCC3(CN(CC(F)(F)F)C4)C1)Cn1c-2c(C2CCCCC2)c2ccc(C(=O)NS(=O)(=O)N(C)C)cc21 (some centres undefined)
The CC50 at 4 h of the first is 1.7-fold higher: 12000 nM for the first, 7000 nM for the second.

Compared with `COc1ccc2c(c1)[C@@H]1C[C@]1(C(=O)N1CC34COCC3(CN(CC(F)(F)F)C4)C1)Cn1c-2c(C2CCCCC2)c2ccc(C(=O)NS(=O)(=O)C(C)C)cc21` (some centres undefined), `COc1ccc2c(c1)[C@@H]1C[C@]1(C(=O)N1CC34CCC3(CN(C)C4)C1)Cn1c-2c(C2CCCCC2)c2ccc(C(=O)NS(=O)(=O)C(C)C)cc21` (some centres undefined) is 2.6-fold higher in CC50 at 4 h: 8000 nM for the first, 21000 nM for the second.

With `COc1ccc2c(c1)[C@@H]1C[C@]1(C(=O)N1CC34CCCC3(CN(C)C4)C1)Cn1c-2c(C2CCCCC2)c2ccc(C(=O)NS(=O)(=O)C(C)C)cc21` (some centres undefined) the CC50 at 4 h was 11000 nM.

Tested on: Hepatitis C virus
Assay: Antiviral activity against HCV genotype 1a H77c infected in human HuH7 cells after 3 days by luciferase reporter gene assay
Assay type: functional, cell-based, Hepacivirus hominis
Conditions: Huh-7, 72 h

Compared with `COc1ccc2c(c1)[C@@H]1C[C@]1(C(=O)N1CC34CNCC3(CN(C)C4)C1)Cn1c-2c(C2CCCCC2)c2ccc(C(=O)NS(=O)(=O)C(C)C)cc21` (some centres undefined), `COc1ccc2c(c1)[C@@H]1C[C@]1(C(=O)N1CC34CCC3(CN(C)C4)C1)Cn1c-2c(C2CCCCC2)c2ccc(C(=O)NS(=O)(=O)C(C)C)cc21` (some centres undefined) is 10-fold lower in EC50: 41 nM for the first, 4 nM for the second. The second is the more potent here.

Going from `COc1ccc2c(c1)[C@@H]1C[C@]1(C(=O)N1CC34CNCC3(COC4)C1)Cn1c-2c(C2CCCCC2)c2ccc(C(=O)NS(=O)(=O)C(C)C)cc21` (some centres undefined) to `COC(=O)N1CC23COCC2(C1)CN(C(=O)[C@]12C[C@H]1c1cc(OC)ccc1-c1c(C4CCCCC4)c4ccc(C(=O)NS(=O)(=O)C(C)C)cc4n1C2)C3` (some centres undefined), the EC50 rises from 23 nM to 46 nM (2-fold). The first is the more potent here.

First: COc1ccc2c(c1)[C@@H]1C[C@]1(C(=O)N1CC34COCC3(C1)CN(S(=O)(=O)C(C)C)C4)Cn1c-2c(C2CCCCC2)c2ccc(C(=O)NS(=O)(=O)N(C)C)cc21 (some centres undefined)
Second: COc1ccc2c(c1)[C@@H]1C[C@]1(C(=O)N1CC34COCC3(CN(CC(F)(F)F)C4)C1)Cn1c-2c(C2CCCCC2)c2ccc(C(=O)NS(=O)(=O)N(C)C)cc21 (some centres undefined)
The EC50 of the first is 3.2-fold lower: 6 nM for the first, 19 nM for the second.

Going from `COc1ccc2c(c1)[C@@H]1C[C@]1(C(=O)N1CC34COCC3(CN(CC(F)(F)F)C4)C1)Cn1c-2c(C2CCCCC2)c2ccc(C(=O)NS(=O)(=O)C(C)C)cc21` (some centres undefined) to `CCOCCN1CC23COCC2(C1)CN(C(=O)[C@]12C[C@H]1c1cc(OC)ccc1-c1c(C4CCCCC4)c4ccc(C(=O)NS(=O)(=O)C(C)C)cc4n1C2)C3` (some centres undefined), the EC50 falls from 16 nM to 5 nM (3.2-fold). The second is the more potent here.

With `COc1ccc2c(c1)[C@@H]1C[C@]1(C(=O)N1CC34CCCC3(CN(C)C4)C1)Cn1c-2c(C2CCCCC2)c2ccc(C(=O)NS(=O)(=O)C(C)C)cc21` (some centres undefined) the EC50 was 2 nM.

Tested on: not listed separately
Assay: Drug uptake in rat liver at 5 mg/kg, iv after 6 hrs
Assay type: ADME, organism-based
Parameters: dose 5 mg/kg, route intravenous
Conditions: liver, read-out: Drug uptake

Going from `CCOCCN1CC23COCC2(C1)CN(C(=O)[C@]12C[C@H]1c1cc(OC)ccc1-c1c(C4CCCCC4)c4ccc(C(=O)NS(=O)(=O)C(C)C)cc4n1C2)C3` (some centres undefined) to `COc1ccc2c(c1)[C@@H]1C[C@]1(C(=O)N1CC34CCC3(CN(C)C4)C1)Cn1c-2c(C2CCCCC2)c2ccc(C(=O)NS(=O)(=O)C(C)C)cc21` (some centres undefined), the concentration at 6 h rises from 77 nM to 138 nM (1.8-fold).

Work on `COc1ccc2c(c1)[C@@H]1C[C@]1(C(=O)N1CC34CCCC3(CN(C)C4)C1)Cn1c-2c(C2CCCCC2)c2ccc(C(=O)NS(=O)(=O)C(C)C)cc21` (some centres undefined) yielded a concentration at 6 h of 428 nM.
